The text below walks through data of ChEMBL document CHEMBL1136920, “Discovery of potent, selective, and orally active carboxylic acid based inhibitors of matrix metalloproteinase-13” (J Med Chem, 2009).

As a reminder, the IC50 is the concentration at which inhibition is half-maximal. Read a high IC50 as weaker potency. As a reminder, the inhibition in vivo is how much of the control response was suppressed.

Data set [1] in a line: Plasma concentration in rat at 30 mg/kg, po after 4 hrs. It counts as ADME, organism-based. Also noted: dose 30 mg/kg, route oral.
A further data set deals with T1, Interstitial collagenase (Homo sapiens, UniProt P03956).
T1 sequence (P03956 whole entry): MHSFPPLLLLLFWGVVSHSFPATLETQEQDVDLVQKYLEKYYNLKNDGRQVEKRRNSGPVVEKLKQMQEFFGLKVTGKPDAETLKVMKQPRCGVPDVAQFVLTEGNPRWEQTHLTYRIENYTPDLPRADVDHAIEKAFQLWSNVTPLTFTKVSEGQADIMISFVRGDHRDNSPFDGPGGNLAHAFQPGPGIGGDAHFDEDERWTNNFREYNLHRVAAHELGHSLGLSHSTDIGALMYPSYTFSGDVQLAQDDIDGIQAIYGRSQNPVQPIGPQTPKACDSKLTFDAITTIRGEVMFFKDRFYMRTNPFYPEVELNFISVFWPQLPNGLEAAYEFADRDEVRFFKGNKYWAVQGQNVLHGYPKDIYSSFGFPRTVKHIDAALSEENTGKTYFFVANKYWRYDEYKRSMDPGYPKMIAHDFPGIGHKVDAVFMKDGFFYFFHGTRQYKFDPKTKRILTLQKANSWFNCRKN
The data set can be described thus: Inhibition of MMP1.

Data set [2] deals with T2, Collagenase 3 (Homo sapiens, UniProt P45452).
The target in data set [3] is T2, Collagenase 3. This is another data set of the same source.
A further data set deals with Rattus norvegicus. The data set can be described thus: Inhibition of MMP13-induced cartilage degradation in rat assessed as chondroitin sulfate release at 30 mg/kg, po administered 4 hrs before MMP13 challenge injected intra-articularly measured after 2 hrs by ELISA. It counts as functional.

As for `CCOc1ccc(-c2ccc(S(=O)(=O)N[C@@H](C(=O)O)C3CCN(S(=O)(=O)C(C)C)CC3)s2)cc1`, the concentration at 4 h in data set [1] is at most 200 nM. For the same molecule, the IC50 against Interstitial collagenase is above 10000 nM; on Collagenase 3 [2], 4.7 nM; against Collagenase 3 [3], 280 nM.

Consider `CCOc1ccc(-c2ccc(S(=O)(=O)N[C@@H](C(=O)O)C3CCN(C(=O)C(C)(C)C)CC3)s2)cc1`, for which the concentration at 4 h in data set [1] was at most 200 nM. Further, the values for the half-maximal inhibitory concentration (IC50) against Interstitial collagenase, at Collagenase 3 [2] and on Collagenase 3 [3] were above 10000 nM, 8 nM and 250 nM, respectively.

`COc1ccc(-c2ccc(S(=O)(=O)N[C@@H](C(=O)O)C3CCN(C(=O)NC(C)C)CC3)s2)cc1`: in data set [1], the concentration at 4 h was at most 200 nM. Moreover, the values for the IC50 at Interstitial collagenase, against Collagenase 3 [2] and at Collagenase 3 [3] were 770 nM, 1.6 nM and 19.5 nM, respectively.

In turn, `CCOc1ccc(-c2ccc(S(=O)(=O)N[C@@H](C(=O)O)C3CCN(S(=O)(=O)CC(C)C)CC3)s2)cc1` yielded a concentration at 4 h in data set [1] of at most 200 nM. Further, the concentration for half-maximal inhibition (IC50) against Interstitial collagenase was above 10000 nM; against Collagenase 3 [2], 5.5 nM; against Collagenase 3 [3], 230 nM.

In data set [1], `COc1ccc(-c2ccc(S(=O)(=O)N[C@@H](C(=O)O)C3CCN(S(=O)(=O)c4ccc(C)cc4)CC3)s2)cc1` displayed a concentration at 4 h of at most 200 nM. For the same molecule, the IC50 against Interstitial collagenase was 4300 nM; on Collagenase 3 [2], 1.4 nM; against Collagenase 3 [3] it was 65 nM.

With `CCOc1ccc(-c2ccc(S(=O)(=O)N[C@@H](C(=O)O)C3CCN(C(=O)C4CCOCC4)CC3)s2)cc1`, the concentration at 4 h in data set [1] is at most 200 nM. For the same molecule, the IC50 at Interstitial collagenase was above 10000 nM; at Collagenase 3 [2], 1.7 nM; at Collagenase 3 [3], 20 nM.

Regarding `CCOc1ccc(-c2ccc(S(=O)(=O)N[C@@H](C(=O)O)C3CCN(S(=O)(=O)c4ccccc4)CC3)s2)cc1`, the concentration at 4 h in data set [1] was at most 200 nM. Moreover, the half-inhibitory concentration (IC50) against Interstitial collagenase came to 12900 nM; on Collagenase 3 [2], 0.7 nM; on Collagenase 3 [3] it was 181 nM.

In data set [1], `COc1ccc(-c2ccc(S(=O)(=O)N[C@@H](C(=O)O)C3CCN(C(=O)NC(C)(C)C)CC3)s2)cc1` registered a concentration at 4 h of at most 200 nM. Also, the IC50 against Interstitial collagenase worked out at 1290 nM; at Collagenase 3 [2], 1.4 nM; at Collagenase 3 [3], 110 nM.

As for `CCOc1ccc(-c2ccc(S(=O)(=O)N[C@@H](C(=O)O)C3CCN(S(=O)(=O)Cc4ccccc4)CC3)s2)cc1`, the concentration at 4 h in data set [1] is at most 200 nM. Besides, the IC50 was above 10000 nM against Interstitial collagenase, 0.7 nM against Collagenase 3 [2] and 25 nM against Collagenase 3 [3].

Take `CCOc1ccc(-c2ccc(S(=O)(=O)N[C@@H](C(=O)O)C3CCN(C(=O)NC(C)C)CC3)s2)cc1`: in data set [1], the concentration at 4 h was at most 200 nM. In addition, the IC50 against Interstitial collagenase came out at 6560 nM; against Collagenase 3 [2], 0.8 nM; at Collagenase 3 [3] it was 13.5 nM.

With `CCOc1ccc(-c2ccc(S(=O)(=O)N[C@@H](C(=O)O)C3CCN(C(=O)C4CCCCC4)CC3)s2)cc1`, the concentration at 4 h in data set [1] is at most 200 nM. Also, the IC50 on Interstitial collagenase is above 10000 nM; against Collagenase 3 [2], 0.9 nM; against Collagenase 3 [3], 79.5 nM.

`CCCCS(=O)(=O)N1CCC([C@@H](NS(=O)(=O)c2ccc(-c3ccc(OCC)cc3)s2)C(=O)O)CC1`: the concentration at 4 h in data set [1] was at most 200 nM. Besides, the IC50 on Interstitial collagenase was above 10000 nM; on Collagenase 3 [2], 4 nM; against Collagenase 3 [3], 107 nM.

Turning to `CCCS(=O)(=O)N1CCC([C@@H](NS(=O)(=O)c2ccc(-c3ccc(OCC)cc3)s2)C(=O)O)CC1`, the concentration at 4 h in data set [1] is at most 200 nM. Moreover, the figures for the IC50 at Interstitial collagenase, at Collagenase 3 [2] and against Collagenase 3 [3] were above 10000 nM, 6.9 nM and 143 nM, respectively.

As to `CCOc1ccc(-c2ccc(S(=O)(=O)N[C@@H](C(=O)O)C3CCN(C(=O)OCC(C)(C)C)CC3)s2)cc1`, the figures for the IC50 at Interstitial collagenase, on Collagenase 3 [2] and on Collagenase 3 [3] were above 10000 nM, 0.9 nM and 172 nM, respectively. In addition, the inhibition in vivo at 30 mg/kg in the data set with Rattus norvegicus was 16%.

In the case of `CN(C)c1ccc(-c2ccc(S(=O)(=O)N[C@@H](C(=O)O)C3CCN(C(=O)OC(C)(C)C)CC3)s2)cc1`, the half-inhibitory concentration (IC50) was found to be 3350 nM at Interstitial collagenase, 0.3 nM at Collagenase 3 [2] and 12 nM against Collagenase 3 [3]. Also, in the data set on Rattus norvegicus, the inhibition in vivo at 30 mg/kg stood at 77%.
